Tested on: rats subjected to adrenalectomy (granuloma around implanted cotton wads)
Experiment: granulom test (cotton-pellet test) on rats subjected to adrenalectomy: granuloma growth, thymus weight, body weight increase
Assay type: in vivo, rat (Sprague-Dawley)
Settings: for Dose required to obtain 50% inhibition of Granuloma growth: Table 3, adrenalectomized young male Sprague-Dawley rats, topical in implanted cotton wads, day 8; for Dose required to obtain 25% inhibition of Body weight Increase / Dose required to obtain 50% inhibition of Thymus weight: 11520 min
From the text: In the following this active stereoisomeric component will always be designated B. As regards the steroids referred to in connection with the present invention the stereoisomeric mixture as well as the individual stereoisomeric components A and B have been investigated with regard to antiinflammatory activity in granulom test on rats subjected to adrenalectomy. The experimental procedure used corresponds largely to that described by G. Engelhardt: Arzneimittel-Forschung, 13, p. 588, 1963. According to this procedure the test substances are applied topically in the implanted cottom wads. It is thereby possible to study the local antiinflammatory effect in granulomas and also systemic effects in the form of retrogression of thymus and inhibition of bodyweight growth.
Young male rats of the Sprague-Dawley strain weighing about 110-130 g were subjected to adrenalectomy under ether narcosis. Two sterilized cottom wads of each about 6 mg were implanted simultaneously subcutaneously on the lateral side of the spinal. After awakening the animals were stored 5 per cage and were supplied with normal food and 1% sodium chloride solution as drinking water. On the eighth test day the animals were sacrificed by ether narcosis. The granuloma formed around the cotton wads were carefully recovered and thymus and body weights were measured. The two granuloma from each animal were dried over night at 80° C and weighed. After subtraction of the initial weight of the cotton wads the weight increase was used as a measure of the granulom growth.
The test substances were used dissolved in ethyl acetate. Under aseptic conditions 0.05 ml of said solutions were injected into each of the cotton wads, whereafter the solvent was allowed to evaporate in the desiccator. Normally 3 concentrations of each test substance with the standard doses 3.3, 30 and 270 γ/animal were investigated. Each test group normally comprised 10 rats. The cotton wads of the control group were injected with only ethyl acetate, but were in other respects treated in the same way. When considering the effects of the test substances the average values of granulom growth, thymus weight and body weight increase day 0-8 were measured in each group in absolute figures and in % of the corresponding figure of the control group. Dose-response curves were drafted and used for estimating the doses giving 50 % reduction of granulom growth and of thymus weight and 25 % decrease of body weight increase.
The following Table 4 discloses the results of the cotton-pellet test hereinbefore described, giving in addition figures for the therapeutic ratios, that is, the ratios of the ED50 for thymus weight inhibition divided by the ED50 for granuloma formation inhibition, and the ED25 for body weight increase inhibition over the ED50 for granuloma formation inhibition. As will be recognized, the higher the number for the therapeutic ratio, the more favorable the therapeutic ratio. […] As will be noted for the table, the therapeutic ratio for thymus over granuloma for the Component A esters is 4.2, 7.1, 4.5, 2.6, 2.2, 1.7, 2.5 and 1.7 times as good as it is for the corresponding Component B ester isomer, whereas the therapeutic ratio for the Component A ester isomer as far as body weight is granuloma 2.7, 3.3, 9.8, 6.4, 2.3, 2.8, 3.3 and 2.8 times as favorable as for the corresponding Component B ester isomer.

| Compound | Dose required to obtain 50% inhibition of Granuloma growth | Dose required to obtain 25% inhibition of Body weight Increase (rat, in vivo) | Dose required to obtain 50% inhibition of Thymus weight (rat, in vivo) | ED25 body weight increase inhibition (rat, in vivo) [µg/animal] | ED50 thymus weight inhibition (rat, in vivo) [µg/animal] | Therapeutic ratio body weight/granuloma (rat, in vivo) | Therapeutic ratio thymus/granuloma (rat, in vivo) | decrease of body weight growth at the dose giving 50% inhibition of granulom growth (rat, in vivo) | decrease of thymus weight at the dose giving 50% inhibition of granulom growth (rat, in vivo) | Therapeutic ratio body weight/granuloma (Table 4, ED25 body weight increase inhibition over ED50 granuloma formation inhibition) | Therapeutic ratio thymus/granuloma (Table 4, ED50 thymus weight inhibition divided by ED50 granuloma formation inhibition) |
| --- | --- | --- | --- | --- | --- | --- | --- | --- | --- | --- | --- |
| CC1O[C@@H]2C[C@H]3[C@@H]4CCC5=CC(=O)C=C[C@]5(C)[C@@]4(F)[C@@H](O)C[C@]3(C)[C@]2(C(=O)COC(=O)c2cccnc2)O1 (single isomer, unassigned) [17 B] | 3 γ/animal | 20 γ/animal | 13 γ/animal |  |  |  |  |  |  |  |  |
| CCCCC(=O)OCC(=O)C12OC(CCC)OC1CC1C3CCC4=CC(=O)C=CC4(C)C3(F)C(O)CC12C (mixture of isomers) [22 A+B] | 10 γ/animal | 30 γ/animal | 50 γ/animal |  |  |  |  |  |  |  |  |
| CC1O[C@@H]2C[C@H]3[C@@H]4C[C@H](F)C5=CC(=O)C=C[C@]5(C)[C@@]4(F)[C@@H](O)C[C@]3(C)[C@]2(C(=O)CO)O1 (single isomer, unassigned) [7 A] | 15 γ/animal | 20 γ/animal | 12 γ/animal |  |  |  |  |  |  |  |  |
| CCCC1O[C@@H]2C[C@H]3[C@@H]4CCC5=CC(=O)C=C[C@]5(C)[C@@]4(F)[C@@H](O)C[C@]3(C)[C@]2(C(=O)COC(=O)c2cc3ccccc3o2)O1 (single isomer, unassigned) [20 A] | < 3 γ/animal | 50 γ/animal | 90 γ/animal | 50 | 90 | > 16.7 | > 30.0 |  |  |  |  |
| CCCCC(=O)OCC(=O)[C@@]12OC(CCC)O[C@@H]1C[C@H]1[C@@H]3CCC4=CC(=O)C=C[C@]4(C)[C@@]3(F)[C@@H](O)C[C@@]12C (single isomer, unassigned) [22 A] | < 3 γ/animal | 33 γ/animal | 90 γ/animal | 33 | 90 | > 11.0 | > 30.0 |  |  |  |  |
| CCCC1O[C@@H]2C[C@H]3[C@@H]4CCC5=CC(=O)C=C[C@]5(C)[C@H]4[C@@H](O)C[C@]3(C)[C@]2(C(=O)COC(C)=O)O1 (single isomer, unassigned) [27 B] | < 3 γ/animal | 35 γ/animal | 60 γ/animal | 35 | 60 | > 11.7 | > 20.0 |  |  |  |  |
| CC1O[C@@H]2C[C@H]3[C@@H]4CCC5=CC(=O)C=C[C@]5(C)[C@@]4(F)[C@@H](O)C[C@]3(C)[C@]2(C(=O)CO)O1 (single isomer, unassigned) [1 A] | 270 γ/animal | 60 γ/animal | 115 γ/animal |  |  |  |  |  |  |  |  |
| CCCCC1O[C@@H]2C[C@H]3[C@@H]4CCC5=CC(=O)C=C[C@]5(C)[C@@]4(F)[C@@H](O)C[C@]3(C)[C@]2(C(=O)CO)O1 (single isomer, unassigned) [4 A] | < 3 γ/animal | 170 γ/animal | 100 γ/animal |  |  |  |  |  |  |  |  |
| CCCC1OC2CC3C4CCC5=CC(=O)C=CC5(C)C4(F)C(O)CC3(C)C2(C(=O)COC(=O)c2cc3ccccc3o2)O1 (mixture of isomers) [20 A+B] | < 3 γ/animal | 20 γ/animal | 25 γ/animal |  |  |  |  |  |  |  |  |
| CCCCC1OC2CC3C4CCC5=CC(=O)C=CC5(C)C4(F)C(O)CC3(C)C2(C(=O)CO)O1 (mixture of isomers) [4 A+B] | < 3 γ/animal | 170 γ/animal | 70 γ/animal |  |  |  |  |  |  |  |  |
| CCCC1O[C@@H]2C[C@H]3[C@@H]4C[C@H](F)C5=CC(=O)C=C[C@]5(C)[C@@]4(F)[C@@H](O)C[C@]3(C)[C@]2(C(=O)COC(=O)c2cc3ccccc3o2)O1 (single isomer, unassigned) [25 A] | < 3 γ/animal | 20 γ/animal | 15 γ/animal | 20 | 15 | > 6.7 | > 5.0 |  |  |  |  |
| CCCC1O[C@@H]2C[C@H]3[C@@H]4CCC5=CC(=O)C=C[C@]5(C)[C@H]4[C@@H](O)C[C@]3(C)[C@]2(C(=O)CO)O1 (single isomer, unassigned) [12 A] | 125 γ/animal | > 270 γ/animal | 125 γ/animal |  |  |  |  |  |  |  |  |
| CC1O[C@@H]2C[C@H]3[C@@H]4CCC5=CC(=O)C=C[C@]5(C)[C@@]4(F)[C@@H](O)C[C@]3(C)[C@]2(C(=O)CO)O1 (stereo partly drawn) [1 A+B] | 120 γ/animal | > 270 γ/animal | 270 γ/animal |  |  |  |  |  |  |  |  |
| CCCC1O[C@@H]2C[C@H]3[C@@H]4CCC5=CC(=O)C=C[C@]5(C)[C@@]4(F)[C@@H](O)C[C@]3(C)[C@]2(C(=O)COC(=O)c2cc3ccccc3o2)O1 (single isomer, unassigned) [20 B] | < 3 γ/animal | 5 γ/animal | 20 γ/animal | 5 | 20 | > 1.7 | > 6.7 |  |  |  |  |
| CCCC1O[C@@H]2C[C@H]3[C@@H]4CCC5=CC(=O)C=C[C@]5(C)[C@H]4[C@@H](O)C[C@]3(C)[C@]2(C(=O)COC(C)=O)O1 (single isomer, unassigned) [27 A] | < 3 γ/animal | 100 γ/animal | 100 γ/animal | 100 | 100 | > 33.3 | > 33.3 |  |  |  |  |
| CCCCCC1O[C@@H]2C[C@H]3[C@@H]4CCC5=CC(=O)C=C[C@]5(C)[C@@]4(F)[C@@H](O)C[C@]3(C)[C@]2(C(=O)CO)O1 (single isomer, unassigned) [5 B] | 10 γ/animal | > 270 γ/animal | 90 γ/animal |  |  |  |  |  |  |  |  |
| CC1(C)O[C@@H]2C[C@H]3[C@@H]4CCC5=CC(=O)C=C[C@]5(C)[C@@]4(F)[C@@H](O)C[C@]3(C)[C@]2(C(=O)CO)O1 [Triamcinolone acetonide, reference compound] |  | 100 γ/animal | 70 γ/animal |  |  |  |  | heavy decrease | heavy decrease |  |  |
| CCCC1OC2CC3C4CC(F)C5=CC(=O)C=CC5(C)C4(F)C(O)CC3(C)C2(C(=O)CO)O1 (mixture of isomers) [8 A+B] | 5 γ/animal | 50 γ/animal | 10 γ/animal |  |  |  |  |  |  |  |  |
| CC1O[C@@H]2C[C@H]3[C@@H]4C[C@H](F)C5=CC(=O)C=C[C@]5(C)[C@@]4(F)[C@@H](O)C[C@]3(C)[C@]2(C(=O)COC(=O)c2cc3ccccc3o2)O1 (stereo partly drawn) [23 A] |  |  |  | 10 | 10 |  |  |  |  | > 3.3 | > 3.3 |
| CCCC1O[C@@H]2C[C@H]3[C@@H]4CCC5=CC(=O)C=C[C@]5(C)[C@H]4[C@@H](O)C[C@]3(C)[C@]2(C(=O)COC(=O)c2cc3ccccc3o2)O1 (single isomer, unassigned) [28 B] |  |  |  | 35 | 60 | > 11.7 | > 20.0 |  |  |  |  |

Reference: patent US3996359A, “Novel stereoisomeric component A of stereoisomeric mixtures of 2'-unsymmetrical 16,17-methylenedioxy steroid 21-acylates, compositions thereof, and method of treating therewith” (AB Bofors, priority 1972, dated 1976)
